Data taken from patent US20140288073A1, “Method of Treating Gastrointestinal Stromal Tumors” (NOVARTIS AG, priority 2011, published 2014).
“Also recorded” adds a separate entry of the source.

Key:
[1] = system: GIST882 cells; test: CellTiter-Glo cell viability/proliferation assay, GIST882; format: cell-based, human; details: for Inhibition of proliferation as single agent: GIST882 (K642E mutant KIT), Example 2; for Combination Index for 70% inhibition of GIST cell proliferation / Synergy Score for inhibition of GIST cell proliferation: Imatinib combined with the compound
Excerpt: (§1) GIST882, GIST48 and GIST430 cell lines were obtained from the Brigham and Women's Hospital, Boston, Mass. GIST882 was established from an untreated human GIST with a homozygous missense mutation in KIT exon 13, encoding a […] mutant KIT protein ([…], et al. Oncogene 2001; 20: 5054-5058). […] GIST48 has a primary homozygous exon 11 missense mutation […]) and a secondary heterozygous exon 17 missense mutation […]). GIST430 has a primary heterozygous exon 11 in-frame deletion and a secondary heterozygous exon 13 missense mutation (V654A). GIST-T1 was obtained from Kochi Medical School, Kochi, Japan. It was established from a metastatic human GIST with a heterozygous […] bases in exon 11 of KIT (Taguchi T, Sonobe H, Toyonaga S, et al. Lab Invest 2002; 82: 663-665). […] Cell proliferation was measured using the CellTiter-Glo luminescent cell viability assay (Promega catalog #G755B) and Victor4 plate reader (Perkin Elmer). Synergy scores and CI70 calculations were determined as described elsewhere (Lehar J, Krueger A S, et al. Nat Biotechnol 2009; 27: 659-666).

[2] = system: GIST-T1 cells; test: CellTiter-Glo cell viability/proliferation assay, GIST-T1; format: cell-based, human; details: for Inhibition of proliferation as single agent: GIST-T1 (ex11del KIT), Example 2; for Combination Index for 70% inhibition of GIST cell proliferation / Synergy Score for inhibition of GIST cell proliferation: Imatinib combined with the compound
Excerpt: as §1

[3] = system: GIST cell lines; test: Combination effect on growth of GIST cell lines (FIG. 6); format: cell-based, human; details: combination with nilotinib, presence of 20 ng/ml FGF2, monophosphate
Method: FIG. 6: Combination effect of nilotinib plus BGJ398 in GIST cell lines in the presence of 20 ng/ml FGF2.
10,000 cells suspended in 80 μl media were seeded into each well of a 96-well cell-culture plate and grown for 24 hours prior to treatment. 10 μl of 60 μg/mL heparin (Sigma Catalog # H3149) was added to each well, and then 10 μl of 50 μg/mL FGF2 (R&D Catalog #233-FB/CF) or media was added to each well of the plates. 10 μl of each of the compound dilutions described above and 10 μl of media were added to wells to a final volume 120 μl such that all pair-wise combinations as well as the single agents were represented. Cells were incubated for 72 hrs at 37° C. in a 5% CO2 incubator following compound addition. Cell proliferation was measured using the CellTiter-Glo luminescent cell viability assay (Promega catalog #G755B) and Victor4 plate reader (Perkin Elmer). Synergy scores and CI70 calculations were determined as described elsewhere (Lehar J, Krueger A S, et al. Nat Biotechnol 2009; 27: 659-666).

[4] = system: GIST430 cells; test: CellTiter-Glo cell viability/proliferation assay, GIST430; format: cell-based, human; details: for Inhibition of proliferation as single agent: GIST430 (ex11del/V654A KIT), Example 2; for Growth suppression in combination with imatinib versus single agent treatment / Combination Index for 70% inhibition of GIST cell proliferation / Synergy Score for inhibition of GIST cell proliferation: GIST430; for Combination Index for 70% inhibition of GIST cell proliferation / Synergy Score for inhibition of GIST cell proliferation: Imatinib combined with the compound
Excerpt: as §1

[5] = system: GIST48 cells; test: CellTiter-Glo cell viability/proliferation assay, GIST48; format: cell-based, human; details: for Inhibition of proliferation as single agent: Example 2; for Combination Index for 70% inhibition of GIST cell proliferation / Synergy Score for inhibition of GIST cell proliferation: Imatinib combined with the compound
Excerpt: as §1

[6] = system: GIST; details: cited from earlier work
[7] = system: GIST; details: cited from earlier work; remark: listed apart in the source
[8] = GIST882, absence of FGF2, 3 days
[9] = GIST882, presence of added FGF2, 3 days
[10] = GIST-T1, absence of FGF2, 3 days
[11] = GIST-T1, presence of added FGF2, 3 days
[12] = GIST882, combination with imatinib

SMILES	Growth inhibition as single agent [1, 8]	Growth inhibition as single agent [1, 9]	Growth inhibition as single agent [2, 10]	Growth inhibition as single agent [2, 11]	Inhibition of proliferation as single agent [1]	Growth suppression in combination with imatinib versus single agent treatment [1, 12]	Combination Index for 70% inhibition of GIST cell proliferation ([1]; GIST882)	Synergy Score for inhibition of GIST cell proliferation ([1]; GIST882)	Inhibition of proliferation as single agent [2]	Combination Index for 70% inhibition of GIST cell proliferation ([2]; GIST-T1)	Synergy Score for inhibition of GIST cell proliferation ([2]; GIST-T1)	Inhibition of proliferation as single agent [4]	Growth suppression in combination with imatinib versus single agent treatment [4]	Combination Index for 70% inhibition of GIST cell proliferation [4]	Synergy Score for inhibition of GIST cell proliferation [4]	Inhibition of proliferation as single agent [5]	Combination Index for 70% inhibition of GIST cell proliferation [5]	Synergy Score for inhibition of GIST cell proliferation [5]	further results
CCN1CCN(c2ccc(Nc3cc(N(C)C(=O)Nc4c(Cl)c(OC)cc(OC)c4Cl)ncn3)cc2)CC1.O=P(O)(O)O [BGJ398, 3-(2,6-dichloro-3,5-dimethoxy-phenyl)-1-{6-[4-(4-ethyl-piperazin-1-yl)-phenylamino]-pyrimid-4-yl}-1-methyl-urea monophosphate]	did not significantly affect the viability	did not significantly affect the viability	did not significantly affect the viability	did not significantly affect the viability															Combination effect on growth inhibition ([1]; GIST882, combination with imatinib, presence of FGF2 (20 ng/ml)): strong combination effects; Combination effect on growth inhibition ([2]; GIST-T1, combination with imatinib, presence of FGF2 (20 ng/ml)): strong combination effects; Combination effect on growth inhibition [3]: strong combination effects; also recorded: synergy
Cn1c(=O)n(-c2ccc(C(C)(C)C#N)cc2)c2c3cc(-c4cnc5ccccc5c4)ccc3ncc21 [COMPOUND A, 2-methyl-2-[4-(3-methyl-2-oxo-8-quinolin-3-yl-2,3-dihydro-imidazo[4,5-c]quinolin-1-yl)-phenyl]-propionitrile]					inhibited the proliferation of all four cell-lines at low micromolar concentrations	growth suppression was observed in excess of the percent inhibition achieved by imatinib or COMPOUND A single agent treatment	0.194	5.07	inhibited the proliferation of all four cell-lines at low micromolar concentrations	0.493	1.10	inhibited the proliferation of all four cell-lines at low micromolar concentrations	growth suppression was observed in excess of the percent inhibition achieved by imatinib or COMPOUND A single agent treatment	0.260	2.06	inhibited the proliferation of all four cell-lines at low micromolar concentrations	1.25	0.38	
Nc1cc(C(F)(F)F)c(-c2cc(N3CCOCC3)nc(N3CCOCC3)n2)cn1 [COMPOUND C, 5-(2,6-di-morpholin-4-yl-pyrimidin-4-yl)-4-trifluoromethyl-pyridin-2-ylamine]					inhibited the proliferation of all four cell-lines at low micromolar concentrations	growth suppression was observed in excess of the percent inhibition achieved by imatinib or COMPOUND C single agent treatment	0.597	1.90	inhibited the proliferation of all four cell-lines at low micromolar concentrations	0.782	1.29	inhibited the proliferation of all four cell-lines at low micromolar concentrations	growth suppression was observed in excess of the percent inhibition achieved by imatinib or COMPOUND C single agent treatment	0.252	1.96	inhibited the proliferation of all four cell-lines at low micromolar concentrations	0.716	1.20	
Cc1nc(NC(=O)N2CCC[C@H]2C(N)=O)sc1-c1ccnc(C(C)(C)C(F)(F)F)c1 [COMPOUND D, (S)-pyrrolidine-1,2-dicarboxylic acid 2-amide 1-({4-methyl-5-[2-(2,2,2-trifluoro-1,1-dimethyl-ethyl)-pyridin-4-yl]-thiazol-2-yl}-amide)]					little or no effect			0.46	little or no effect	0.988	1.06	little or no effect	growth suppression was observed in excess of the percent inhibition achieved by imatinib or COMPOUND D single agent treatment	0.791	2.04	little or no effect	1.18	1.98	Growth suppression in combination with imatinib versus single agent treatment ([5]; combination with imatinib): growth suppression was observed in excess of the percent inhibition achieved by imatinib or COMPOUND D single agent treatment
Cc1ccc(NC(=O)c2ccc(CN3CCN(C)CC3)cc2)cc1Nc1nccc(-c2cccnc2)n1 [imatinib, 4-(4-methylpiperazin-1-ylmethyl)-N-[4-methyl-3-(4-(pyridin-3-yl)pyrimidin-2-ylamino)phenyl]-benzamide, reference compound]	efficacious	less sensitive	efficacious	less sensitive	potently inhibited				potently inhibited			potently inhibited				imatinib resistant			Progression-free survival (PFS) ([6]; 800 mg/day compared to 400 mg/day, advanced GIST harboring KIT exon 9 mutations): significantly improves; Patients progressing after 2 years of first line therapy ([6]; advanced GIST, first line therapy): more than 50%; Recurrence-free survival (RFS) ([7]; 400 mg/day for 12 months compared with placebo, after complete resection (ACOSOGZ9001)): significantly prolonged; RFS and overall survival ([7]; 36 months versus 12 months adjuvant therapy, 400 mg once daily (SSGXVIII/AIO)): superior to 12 months
Cc1cn(-c2cc(NC(=O)c3ccc(C)c(Nc4nccc(-c5cccnc5)n4)c3)cc(C(F)(F)F)c2)cn1 [nilotinib, 4-methyl-3-[[4-(3-pyridinyl)-2-pyrimidinyl]amino]-N-[5-(4-methyl-1H-imidazol-1-yl)-3-(trifluoromethyl)phenyl]benzamide, reference compound]	sensitive		sensitive																GI50 shift in the presence of added FGF2 ([1]; GIST882, 3 days, with vs without added FGF2 (50, 25, 12 ng/ml)): greater than 10 fold; GI50 shift in the presence of added FGF2 ([2]; GIST-T1, 3 days, with vs without added FGF2 (50, 25, 12 ng/ml)): greater than 10 fold
